Entries after “also recorded” stand apart in the source; their conditions may differ.
Assays:
[1] = system: R6/2 mice; test: Lower dose behavioral efficacy study in R6/2 mice (Psychogenic); assay type: in vivo, mouse; conditions: lower doses, 0.3 – 3 mg/kg
[2] = system: R6/2 mice; test: Rear Climbing Test; assay type: in vivo, mouse; conditions: for Rear Climbing Test Rearing Frequency: p vs Vehicle-treated R6/2 mice / Rear Climbing Test Climbing Instances: p vs Vehicle-treated R6/2 mice / Rear Climbing Test Latency to Climb: p vs Vehicle-treated R6/2 mice / Rear Climbing Test Time Spent Climbing: p vs Vehicle-treated R6/2 mice: BID
Procedure: Motor function testing including open field and rear climbing tests were commenced at 4 weeks of age and continued at weeks 6, 8 and 12, for grip strength test at age weeks 4 and 12 and for rotarod at age weeks 4, 6 and 8. Compound treatment was started at 4 weeks of age after the baseline behavioral tests.
Rear climbing test was performed at age weeks 4, 6, 8 and 12. The mice were tested on Tuesdays. Each animal was placed into custom made pencil holder, and was scored for 5 minutes. During this period the following events were noted: 1) number of times the mouse rears without touching the mesh walls, 2) latency to climb (lifting 4 paws from the floor is labeled climbing), 3) climbing time, and 4) climbing instances.
All values are presented as mean ± Standard Error of Mean (SEM), and differences are considered to be statistically significant at the p < 0.05 level. Statistical analysis was performed using StatsDirect statistical software. Differences between group means were analyzed by 1-way-ANOVA followed by Dunnett’s test (comparison to the control (=vehicle treated TG mice) group). The acquisition of the Cued two-choice swim test was analyzed using Fisher’s exact test.

[3] = Age Week 4, 10 mg/kg p.o., ANOVA
[4] = Age Week 4, 30 mg/kg p.o., ANOVA
[5] = Age Week 6, 10 mg/kg p.o., ANOVA
[6] = Age Week 6, 30 mg/kg p.o., ANOVA
[7] = Age Week 8, 10 mg/kg p.o., ANOVA
[8] = Age Week 8, 30 mg/kg p.o., ANOVA
[9] = Age Week 12, 10 mg/kg p.o., ANOVA
[10] = Age Week 12, 30 mg/kg p.o., ANOVA

CN1C(=O)c2nc(Cc3ccc(C(F)(F)F)cc3)[nH]c2N2C1=N[C@H]1CCC[C@H]12 [SCH-51866, (+)-cis-5,6a,7,8,9,9a-hexahydro-2-[4-[trifluro-methyl]phenylmethyl]-5-methyl-cylopent[4,5]imidazo [2,1-b]purin-4(3H)one]
effect on disease progression / endpoints (rotarod, grip strength, open field, survival) [1]: no improvement noted in any endpoint; also recorded: no effect in ameliorating disease progression | Rear Climbing Test Rearing Frequency: p vs Vehicle-treated R6/2 mice ([2]; Age Week 4, 10 mg/kg p.o.): p=0.507 | Rear Climbing Test Climbing Instances: p vs Vehicle-treated R6/2 mice [2, 3]: ANOVA: p=0.484 | Rear Climbing Test Latency to Climb: p vs Vehicle-treated R6/2 mice [2, 3]: ANOVA: p=0.365 | Rear Climbing Test Time Spent Climbing: p vs Vehicle-treated R6/2 mice [2, 3]: ANOVA: p=0.853 | Rear Climbing Test Rearing Frequency: p vs Vehicle-treated R6/2 mice ([2]; Age Week 4, 30 mg/kg p.o.): p=0.186 | Rear Climbing Test Climbing Instances: p vs Vehicle-treated R6/2 mice [2, 4]: ANOVA: p=0.484 | Rear Climbing Test Latency to Climb: p vs Vehicle-treated R6/2 mice [2, 4]: ANOVA: p=0.365 | Rear Climbing Test Time Spent Climbing: p vs Vehicle-treated R6/2 mice [2, 4]: ANOVA: p=0.853 | Rear Climbing Test Climbing Instances: p vs Vehicle-treated R6/2 mice [2, 5]: ANOVA: p=0.120 | Rear Climbing Test Latency to Climb: p vs Vehicle-treated R6/2 mice [2, 5]: ANOVA: p=0.257 | Rear Climbing Test Rearing Frequency: p vs Vehicle-treated R6/2 mice [2, 5]: ANOVA: p=0.203 | Rear Climbing Test Time Spent Climbing: p vs Vehicle-treated R6/2 mice [2, 5]: ANOVA: p=0.291 | Rear Climbing Test Climbing Instances: p vs Vehicle-treated R6/2 mice [2, 6]: ANOVA: p=0.120 | Rear Climbing Test Latency to Climb: p vs Vehicle-treated R6/2 mice [2, 6]: ANOVA: p=0.257 | Rear Climbing Test Rearing Frequency: p vs Vehicle-treated R6/2 mice [2, 6]: ANOVA: p=0.203 | Rear Climbing Test Time Spent Climbing: p vs Vehicle-treated R6/2 mice [2, 6]: ANOVA: p=0.291 | Rear Climbing Test Climbing Instances: p vs Vehicle-treated R6/2 mice [2, 7]: ANOVA: p=0.166 | Rear Climbing Test Latency to Climb: p vs Vehicle-treated R6/2 mice [2, 7]: ANOVA: p=0.193 | Rear Climbing Test Rearing Frequency: p vs Vehicle-treated R6/2 mice [2, 7]: ANOVA: p=0.782 | Rear Climbing Test Time Spent Climbing: p vs Vehicle-treated R6/2 mice [2, 7]: ANOVA: p=0.750 | Rear Climbing Test Climbing Instances: p vs Vehicle-treated R6/2 mice [2, 8]: ANOVA: p=0.166 | Rear Climbing Test Latency to Climb: p vs Vehicle-treated R6/2 mice [2, 8]: ANOVA: p=0.193 | Rear Climbing Test Rearing Frequency: p vs Vehicle-treated R6/2 mice [2, 8]: ANOVA: p=0.782 | Rear Climbing Test Time Spent Climbing: p vs Vehicle-treated R6/2 mice [2, 8]: ANOVA: p=0.750 | Rear Climbing Test Climbing Instances: p vs Vehicle-treated R6/2 mice [2, 9]: ANOVA: p=0.671 | Rear Climbing Test Latency to Climb: p vs Vehicle-treated R6/2 mice [2, 9]: ANOVA: p=0.846 | Rear Climbing Test Rearing Frequency: p vs Vehicle-treated R6/2 mice [2, 9]: ANOVA: p=0.122 | Rear Climbing Test Time Spent Climbing: p vs Vehicle-treated R6/2 mice [2, 9]: ANOVA: p=0.724 | Rear Climbing Test Climbing Instances: p vs Vehicle-treated R6/2 mice [2, 10]: ANOVA: p=0.671 | Rear Climbing Test Latency to Climb: p vs Vehicle-treated R6/2 mice [2, 10]: ANOVA: p=0.846 | Rear Climbing Test Rearing Frequency: p vs Vehicle-treated R6/2 mice [2, 10]: ANOVA: p=0.122 | Rear Climbing Test Time Spent Climbing: p vs Vehicle-treated R6/2 mice [2, 10]: ANOVA: p=0.724 | rearing frequency and latency to climb a custom-made pencil holder, effect in words ([2]; chronic administration in R6/2 mice): no improvement
